Reference: PMC3030572, “Antamanide, a Derivative of Amanita phalloides, Is a Novel Inhibitor of the Mitochondrial Permeability Transition Pore” (PLoS ONE, 2011)
“Also recorded” adds a separate entry of the source. Read-outs that look alike come from different tables or passages of the source.

Experiments:
HeLa cells [1] = type: cell-based, human; details: data not shown
HeLa cells [2] = type: cell-based, human; details: TMRM; for induction of mitochondrial depolarization / percentage of cells with depolarized mitochondria: difference from untreated cells: 1 hour; for percentage of cells with depolarized mitochondria: difference from untreated cells: Student's t test, Figure 5B
Protocol: Figure 5 Effect of AA on mitochondrial potential of HeLa cells. A, bar graphs report the ratio between the CRC detected in the presence (CRC) and absence (CRC0) of increasing concentrations of AA in mitochondria from HeLa cells. […] B,C cytofluorimetric analysis of mitochondrial depolarization. HeLa cells were incubated with the TMRM probe and treated for 1 hour with the reported concentrations of either clotrimazole (CTM) or TAT-HK peptide. An unrelated TAT-linked peptide (TAT-Ctr) is used as a negative control. […] Bar graphs in B display the percentage of cells with depolarized mitochondria (mean±SD, n = 4). […] Histograms in C report a representative experiment, where cells with polarized and depolarized mitochondria are indicated in red and grey, respectively.
(§1) Flow cytometry recordings were performed as described, [51], [52]. Briefly, at the end of the incubation, cells were resuspended in 135 mM NaCl, 10 mM HEPES, 5 mM CaCl2 and incubated at 37°C in either TMRM (10 nM) to detect mitochondrial depolarization (reduced TMRM staining), or in FITC-conjugated Annexin-V and propidium iodide (PI, 1 µg/ml), to detect phosphatidylserine exposure on the cell surface (increased FITC-conjugated Annexin-V staining) and loss of plasma membrane integrity (PI permeability and staining). […] Samples were analyzed on a FACSCanto II flow cytometer (Becton Dickinson, San Diego, CA, USA). Data acquisition and analysis were performed using FACSDiva software.

[3] = tested on: organic anion-transporting polypeptide family; details: also our unpublished data; ref [8]; cited from earlier work
Source text: (§2) Antamanide (AA) is a monocyclic, homodetic decapeptide isolated from the poisonous mushroom Amanita phalloides. […] Little is known about the biochemical mechanisms underlying these diverse bioactivities. […] The CyP chaperone activity, i.e. the isomerization to the cis form of the peptidyl bonds preceding each proline, is involved in folding and association processes required for proteins to perform thei ...

[4] = tested on: mitochondrial permeability transition pore (PTP); details: ref [30]; cited from earlier work
Source text: AA is the cyclodecapeptide c([…] (Figure 1A). To evaluate its effect on the PTP, we performed Ca^2+ retention capacity (CRC) assays on isolated mouse liver mitochondria (MLM).

[5] = tested on: mitochondrial permeability transition pore (PTP); type: biochemical, mouse
Protocol: A, chemical structure of AA. B, D, Ca^2+ retention capacity (CRC) either in phosphate (Pi) buffer (B) or in arsenate (Asi) buffer (D). Calcium Green-5N fluorescence is reported as arbitrary units on the y axis.
Mitochondria were isolated either from livers of C57BL/6 mice through sequential centrifugations, or from cells, as described. To obtain mitochondria, cells were disrupted with a glass-Teflon potter in a buffer composed by 250 mM sucrose, 10 mM Tris-HCl, 0.1 mM EGTA-Tris, pH 7.4. Nuclei and plasma membrane fractions were separated by a first mild centrifugation (700× g, 10 min), and mitochondria were then spinned down at a higher speed (7000× g, 10 min). All procedures were carried out at 0–4°C.
PTP opening was detected as a fluorescence increase.

[6] = tested on: muscle samples derived from patients affected by Ullrich muscular dystrophy; details: ref [37]; cited from earlier work
Source text: (§3) CyP-D is a promising pharmacological target.

[7] = tested on: mouse model of the disease; details: ref [38]; cited from earlier work
Source text: as §3

HeLa cells [8] = type: cell-based, human
Protocol: A, cytofluorimetric analysis of cell death induction in HeLa cells treated for 1 hour with TAT-HK. […] TAT-Ctr was used as a negative control. Cells were double stained with Annexin V-FITC and propidium iodide (PI), to respectively evaluate apoptosis induction as phosphatidylserine exposure on the cell surface (increased Annexin V-FITC staining) and cell death as plasma membrane permeabilization (increased PI staining). We considered Annexin V^+ as early/intermediate apoptotic cells; PI^+ as necrotic cells; double stained as late apoptotic cells. Bar graphs display the percentage of each cell population (mean±SD, n = 4; double positive cells are added to both bars). […] B, histograms reporting a representative experiment, where viable cells are indicated in red, PI^+- and Annexin V^+-cells are indicated in grey and green, respectively.
as §1

[9] = tested on: tumor necrosis; metastasis formation; details: ref [45]; cited from earlier work
immunosuppressant = tested on: immunosuppressant; design: method as in PMID 1494502, PMID 8441706; details: ref [10], [11]; cited from earlier work
Source text: as §2

malignancies = details: ref [47]; cited from earlier work
[10] = tested on: multidrug resistance proteins; details: ref [50]; cited from earlier work
lymphocyte activation = details: via CyP-A/CsA complex; ref [36]; cited from earlier work
Source text: (§4) CyP-D is a promising pharmacological target. It is part of the CyP protein family, composed by ubiquitous and extremely conserved proteins located in different subcellular compartments, [35].

HCV/HIV = details: ref [35]; cited from earlier work
Source text: as §4

[11] = tested on: mitochondrial permeability transition pore (PTP); details: ref [37]; cited from earlier work
Protocol: Briefly, at the end of the incubation, cells were resuspended in 135 mM NaCl, 10 mM HEPES, 5 mM CaCl2 and incubated at 37°C in either TMRM (10 nM) to detect mitochondrial depolarization (reduced TMRM staining), or in FITC-conjugated Annexin-V and propidium iodide (PI, 1 µg/ml), to detect phosphatidylserine exposure on the cell surface (increased FITC-conjugated Annexin-V staining) and loss of plasma membrane integrity (PI permeability and staining).

HeLa cells [12] = type: cell-based, human; details: phalloidin 50 µg/ml, 1 hour, TMRM, Figure S1B
[13] = 30 min preincubation, then TAT-HK 1 hour

Compound: Clc1ccccc1C(c1ccccc1)(c1ccccc1)n1ccnc1 [CTM, clotrimazole]
- cell death induction by clotrimazole (HeLa cells [1]; compared with TAT-HK): A similar degree of cell death was observed
- induction of mitochondrial depolarization (HeLa cells [2]): marked mitochondrial depolarization
- percentage of cells with depolarized mitochondria: difference from untreated cells (HeLa cells [2]; n = 4): significant difference (Student's t test analysis; #: p<0.01)

Compound: N#CC(C#N)=NNc1ccc(OC(F)(F)F)cc1 [FCCP]
- mitochondrial depolarization (positive control) (HeLa cells [2]; FCCP 4 µM): full mitochondrial depolarization

Compound: C=CC[C@@H]1/C=C(\C)C[C@H](C)C[C@H](OC)[C@H]2O[C@@](O)(C(=O)C(=O)N3CCCC[C@H]3C(=O)O[C@H](/C(C)=C/[C@@H]3CC[C@@H](O)[C@H](OC)C3)[C@H](C)[C@@H](O)CC1=O)[C@H](C)C[C@@H]2OC [FK506]
- inhibition of cell uptake of phalloidin [3]: cell uptake of phalloidin was also inhibited

Compound: COC1=C(OC)C(=O)C(C)=CC1=O [Ub0, Ubiquinone 0, reference compound]
- PTP inhibition when phosphate is substituted with arsenate [4]: the effect of CsA, but not of Ub0, is abolished
- CRC/CRC0: difference from CRC of untreated mitochondria ([5]; AA at various concentrations, Figure 1C and D, mean±SD of at least 4 experiments, Student's t test): significant difference (Student's t test analysis; *: p<0.01)
- PTP inhibition in arsenate ([5]; arsenate (Asi) buffer, Figure 1B, D): inhibits the pore also in Asi buffer, albeit to a lesser extent

Compound: CO[C@H]1C[C@@H]2CC[C@@H](C)[C@@](O)(O2)C(=O)C(=O)N2CCCC[C@H]2C(=O)O[C@H]([C@H](C)C[C@@H]2CC[C@@H](O)[C@H](OC)C2)CC(=O)[C@H](C)/C=C(\C)[C@@H](O)[C@@H](OC)C(=O)[C@H](C)C[C@H](C)/C=C/C=C/C=C/1C [rapamycin]
- inhibition of cell uptake of phalloidin [3]: cell uptake of phalloidin was also inhibited

Compound: Debio-025
- mitochondrial function and apoptotic rate [6]: normalizes mitochondrial function and apoptotic rate
- mitochondrial function and apoptotic rate [7]: normalizes mitochondrial function and apoptotic rate

Compound: MIASHLLAYFFTELNbA-GYGRKKRRQRRRG [TAT-HK, HKII-displacing peptide]
- cell death induction (HeLa cells [8]; TAT-HK 1 hour, Annexin V / propidium iodide): fast and dramatic cell death, mainly necrosis
- number of PI+ cells: difference from untreated cells (HeLa cells [8]; TAT-HK 1 hour, n = 4, Student's t test #: p<0.01): significantly increased
- induction of mitochondrial depolarization (HeLa cells [2]): marked mitochondrial depolarization
- percentage of cells with depolarized mitochondria: difference from untreated cells (HeLa cells [2]; n = 4): significant difference (Student's t test analysis; #: p<0.01)

Compound: cyclosporin A [CsA]
- effect on tumor necrosis and metastasis [9]: induces tumor necrosis and abrogates metastasis formation
- inhibition of clotrimazole-induced cell death (HeLa cells [1]; clotrimazole): inhibited the process
- immunosuppressant activity (immunosuppressant): act as immunosuppressants
- effect on TAT-HK-induced necrotic response (HeLa cells [8]; [13]): virtually abolished the necrotic response
- residual apoptosis after TAT-HK (HeLa cells [8]; [13]): a small fraction of cells undergoing apoptosis was still detectable
- protection from TAT-HK induced death (HeLa cells [8]; 30 min preincubation, then TAT-HK 1 hour, n = 4, Student's t test *: p<0.01): significantly protected from TAT-HK induced death
- effect on progression of malignancies (malignancies): can enhance the progression of certain malignancies
- inhibition of multidrug resistance proteins [10]: inhibits multidrug resistance proteins
- reversal of CTM-induced mitochondrial depolarization (HeLa cells [2]; 30 min preincubation, then CTM 1 hour, n = 4): significantly decreased the percentage of cells with mitochondria depolarized by CTM (Student's t test analysis; *: p<0.01); also recorded: similarly reverted
- reversal of TAT-HK-induced mitochondrial depolarization (HeLa cells [2]; 30 min preincubation, then TAT-HK 1 hour, n = 4): similarly reverted
- inhibition of lymphocyte activation (lymphocyte activation): inhibits lymphocyte activation
- prevention of HCV/HIV replication (HCV/HIV): prevent HCV/HIV replication

Compound: cyclosporin H
- activity on the PTP [11]: inactive on the PTP

Compound: phalloidin [reference compound]
- effect on mitochondrial potential (HeLa cells [12]): could not detect any effect
- activity on the PTP ([5]; phalloidin 50 µg/ml): inactive on the PTP
- effect on mitochondrial Ca2+ retention capacity ([5]; phalloidin 50 µg/ml, MLM, 3 experiments, Figure S1A): could not detect any effect
